Results: patent publication US20250326753A1, “DUAL CXCR4-BTK INHIBITORS” (X4 Pharmaceuticals, Inc., priority 2022, published 2025)
Like-named read-outs stand apart in the source and are kept apart here.

Assays:
BLK = target: T1, BLK (Homo sapiens, UniProt P51451); experiment: PanQinase kinase panel: BLK; type: biochemical; conditions: read-out: INHIBITORY EFFECT @ 1 uM: BLK
T1 construct: purchased Reaction Biology Europe GmbH
Description: (§1) Screening procedures were performed in accordance with the company's on-line protocol [accessed on-line Mar.
(§2) For each kinase, the median value of the cpm of three wells was defined as “low control” (n=3). This value reflects unspecific binding of radioactivity to the plate in the absence of a protein kinase but in the presence of the substrate. Additionally, for each kinase the median value of the cpm of three other wells was taken as the “high control,” i.e. full activity in the absence of any inhibitor (n=3). The difference between high and low control of each enzyme was taken as 100% activity.
(§3) As part of the data evaluation the low control of each kinase was subtracted from the high control value as well as from their corresponding “compound values”.

RIPK2 = target: T2, RIPK2 (Homo sapiens, UniProt O43353); experiment: PanQinase kinase panel: RIPK2; type: biochemical; conditions: read-out: INHIBITORY EFFECT @ 1 uM: RIPK2
T2 construct: purchased Reaction Biology Europe GmbH
T2 sequence (O43353 whole entry): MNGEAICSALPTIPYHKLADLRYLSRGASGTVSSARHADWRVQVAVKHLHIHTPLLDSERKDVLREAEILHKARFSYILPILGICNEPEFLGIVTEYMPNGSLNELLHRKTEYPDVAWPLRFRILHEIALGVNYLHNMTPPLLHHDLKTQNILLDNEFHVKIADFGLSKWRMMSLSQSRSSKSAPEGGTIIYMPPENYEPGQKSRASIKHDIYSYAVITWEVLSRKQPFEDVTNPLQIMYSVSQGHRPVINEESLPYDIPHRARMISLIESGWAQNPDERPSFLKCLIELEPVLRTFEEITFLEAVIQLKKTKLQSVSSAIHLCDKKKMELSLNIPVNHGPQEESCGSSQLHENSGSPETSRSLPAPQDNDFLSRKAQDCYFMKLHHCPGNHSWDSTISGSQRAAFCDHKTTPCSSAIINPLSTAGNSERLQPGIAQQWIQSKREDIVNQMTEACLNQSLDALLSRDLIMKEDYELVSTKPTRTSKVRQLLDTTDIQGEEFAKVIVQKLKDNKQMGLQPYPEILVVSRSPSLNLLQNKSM
Description: as §1, §2
(§4) As part of the data evaluation the low control of each kinase was subtracted from the high control value as well as from their corresponding “compound values”. The residual activity (in %) for each compound well was calculated by using the following formula: Res. Activity (%)=100×[(signal of compound−low control)/(high control−low control)].

FGFR3 = target: T3, FGFR3 (Homo sapiens, UniProt P22607); experiment: PanQinase kinase panel: FGFR3; type: biochemical; conditions: read-out: INHIBITORY EFFECT @ 1 uM: FGFR3
T3 construct: purchased Reaction Biology Europe GmbH
Description: as §1, §2, §4

FGR = target: T4, FGR (Homo sapiens, UniProt P09769); experiment: PanQinase kinase panel: FGR; type: biochemical; conditions: read-out: INHIBITORY EFFECT @ 1 uM: FGR
T4 construct: purchased Reaction Biology Europe GmbH
T4 sequence (P09769 whole entry): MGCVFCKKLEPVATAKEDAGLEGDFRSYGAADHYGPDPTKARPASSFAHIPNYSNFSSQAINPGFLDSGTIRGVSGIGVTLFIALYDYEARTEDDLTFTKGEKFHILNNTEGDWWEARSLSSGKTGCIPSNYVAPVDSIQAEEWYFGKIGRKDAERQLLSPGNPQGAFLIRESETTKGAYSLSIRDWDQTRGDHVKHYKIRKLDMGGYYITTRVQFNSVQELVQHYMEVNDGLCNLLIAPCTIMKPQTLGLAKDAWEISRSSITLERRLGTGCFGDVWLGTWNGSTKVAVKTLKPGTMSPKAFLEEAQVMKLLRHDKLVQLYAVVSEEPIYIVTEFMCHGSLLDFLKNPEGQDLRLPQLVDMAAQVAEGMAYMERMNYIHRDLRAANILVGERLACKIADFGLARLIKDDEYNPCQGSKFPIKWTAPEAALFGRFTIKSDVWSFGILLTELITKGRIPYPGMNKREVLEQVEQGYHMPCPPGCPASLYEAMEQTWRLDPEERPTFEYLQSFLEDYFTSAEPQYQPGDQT
Description: as §1, §2, §3

PDGFRbeta = target: T5, PDGFRbeta (Homo sapiens, UniProt P09619); experiment: PanQinase kinase panel: PDGFRbeta; type: biochemical; conditions: read-out: INHIBITORY EFFECT @ 1 uM: PDGFRbeta
T5 construct: purchased Reaction Biology Europe GmbH
Description: as §1, §2, §4

CLK2 = target: T6, CLK2 (Homo sapiens, UniProt P49760); experiment: PanQinase kinase panel: CLK2; type: biochemical
T6 construct: purchased Reaction Biology Europe GmbH
T6 sequence (P49760 whole entry): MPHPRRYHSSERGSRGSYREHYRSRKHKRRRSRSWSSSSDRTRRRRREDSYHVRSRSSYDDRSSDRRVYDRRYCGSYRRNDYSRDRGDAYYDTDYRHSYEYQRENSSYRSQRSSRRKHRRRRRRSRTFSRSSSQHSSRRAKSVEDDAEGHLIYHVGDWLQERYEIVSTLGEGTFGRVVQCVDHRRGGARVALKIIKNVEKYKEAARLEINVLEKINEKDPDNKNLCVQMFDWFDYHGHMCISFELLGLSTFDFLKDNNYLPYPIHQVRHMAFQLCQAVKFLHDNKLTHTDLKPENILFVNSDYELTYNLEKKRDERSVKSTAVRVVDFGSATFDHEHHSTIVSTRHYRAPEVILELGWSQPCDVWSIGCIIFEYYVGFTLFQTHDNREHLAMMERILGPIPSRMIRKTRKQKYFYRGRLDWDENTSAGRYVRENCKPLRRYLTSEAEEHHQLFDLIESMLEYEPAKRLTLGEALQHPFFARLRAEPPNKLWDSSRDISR
Description: as §1, §2, §4

LIMK1 = target: T7, LIMK1 (Homo sapiens, UniProt P53667); experiment: PanQinase kinase panel: LIMK1; type: biochemical
T7 construct: purchased Reaction Biology Europe GmbH
T7 sequence (P53667 whole entry): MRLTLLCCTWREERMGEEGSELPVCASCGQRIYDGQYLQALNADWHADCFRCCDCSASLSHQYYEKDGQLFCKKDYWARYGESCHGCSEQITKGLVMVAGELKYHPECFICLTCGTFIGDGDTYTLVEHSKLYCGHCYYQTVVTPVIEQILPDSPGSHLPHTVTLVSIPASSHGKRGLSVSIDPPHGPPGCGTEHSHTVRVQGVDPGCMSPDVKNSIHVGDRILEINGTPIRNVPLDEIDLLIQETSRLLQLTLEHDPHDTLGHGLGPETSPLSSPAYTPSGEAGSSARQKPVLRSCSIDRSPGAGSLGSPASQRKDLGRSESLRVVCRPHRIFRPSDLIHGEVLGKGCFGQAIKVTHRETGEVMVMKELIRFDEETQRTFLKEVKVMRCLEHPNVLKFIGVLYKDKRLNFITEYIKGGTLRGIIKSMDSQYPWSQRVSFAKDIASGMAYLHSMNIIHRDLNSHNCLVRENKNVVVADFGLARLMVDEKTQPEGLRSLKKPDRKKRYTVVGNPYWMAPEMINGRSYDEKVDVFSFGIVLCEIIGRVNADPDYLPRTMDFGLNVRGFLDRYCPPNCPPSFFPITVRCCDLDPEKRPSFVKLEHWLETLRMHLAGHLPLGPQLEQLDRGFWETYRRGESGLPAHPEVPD
Description: as §1, §2, §4

INSR = target: T8, INSR (Homo sapiens, UniProt P06213); experiment: PanQinase kinase panel: INSR; type: biochemical; conditions: read-out: INHIBITORY EFFECT @ 1 uM: INSR
T8 construct: purchased Reaction Biology Europe GmbH
T8 sequence (P06213 28-1382): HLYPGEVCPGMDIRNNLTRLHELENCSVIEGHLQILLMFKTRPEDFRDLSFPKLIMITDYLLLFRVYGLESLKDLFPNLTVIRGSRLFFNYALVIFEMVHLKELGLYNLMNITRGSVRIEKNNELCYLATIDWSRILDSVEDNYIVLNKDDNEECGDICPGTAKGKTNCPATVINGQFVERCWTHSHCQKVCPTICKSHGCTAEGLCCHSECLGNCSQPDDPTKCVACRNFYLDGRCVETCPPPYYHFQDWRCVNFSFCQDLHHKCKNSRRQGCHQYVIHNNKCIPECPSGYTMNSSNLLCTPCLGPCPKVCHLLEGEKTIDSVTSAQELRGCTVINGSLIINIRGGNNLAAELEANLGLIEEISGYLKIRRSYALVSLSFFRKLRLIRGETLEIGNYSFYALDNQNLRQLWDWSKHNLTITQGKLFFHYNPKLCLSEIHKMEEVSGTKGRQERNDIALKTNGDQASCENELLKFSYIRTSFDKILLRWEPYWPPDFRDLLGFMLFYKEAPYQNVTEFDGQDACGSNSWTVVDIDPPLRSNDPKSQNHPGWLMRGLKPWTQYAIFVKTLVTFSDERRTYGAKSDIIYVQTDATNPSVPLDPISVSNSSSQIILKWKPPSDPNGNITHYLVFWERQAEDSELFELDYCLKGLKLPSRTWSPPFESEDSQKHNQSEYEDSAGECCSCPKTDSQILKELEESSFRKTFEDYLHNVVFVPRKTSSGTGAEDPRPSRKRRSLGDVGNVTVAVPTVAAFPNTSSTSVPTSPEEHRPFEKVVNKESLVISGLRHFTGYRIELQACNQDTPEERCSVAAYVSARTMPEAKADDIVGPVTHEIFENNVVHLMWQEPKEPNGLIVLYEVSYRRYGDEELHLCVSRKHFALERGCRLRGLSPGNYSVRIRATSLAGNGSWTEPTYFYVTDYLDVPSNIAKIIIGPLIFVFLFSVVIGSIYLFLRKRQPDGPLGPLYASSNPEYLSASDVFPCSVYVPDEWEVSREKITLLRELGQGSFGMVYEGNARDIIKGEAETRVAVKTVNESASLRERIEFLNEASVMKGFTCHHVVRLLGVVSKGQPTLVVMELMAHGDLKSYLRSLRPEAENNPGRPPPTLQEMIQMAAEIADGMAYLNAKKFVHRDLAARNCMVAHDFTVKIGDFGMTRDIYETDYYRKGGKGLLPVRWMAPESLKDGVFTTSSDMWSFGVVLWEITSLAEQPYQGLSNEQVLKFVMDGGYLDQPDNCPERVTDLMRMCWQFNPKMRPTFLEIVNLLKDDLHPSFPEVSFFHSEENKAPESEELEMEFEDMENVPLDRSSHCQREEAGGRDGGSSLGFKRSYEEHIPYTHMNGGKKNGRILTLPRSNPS
Description: as §1, §2, §4

ACK1 = target: T9, ACK1 (Homo sapiens, UniProt Q07912); experiment: PanQinase kinase panel: ACK1; type: biochemical
T9 construct: purchased Reaction Biology Europe GmbH
Description: as §1, §2, §4

MUSK = target: T10, MUSK (Homo sapiens, UniProt O15146); experiment: PanQinase kinase panel: MUSK; type: biochemical
T10 construct: purchased Reaction Biology Europe GmbH
T10 sequence (O15146 24-869): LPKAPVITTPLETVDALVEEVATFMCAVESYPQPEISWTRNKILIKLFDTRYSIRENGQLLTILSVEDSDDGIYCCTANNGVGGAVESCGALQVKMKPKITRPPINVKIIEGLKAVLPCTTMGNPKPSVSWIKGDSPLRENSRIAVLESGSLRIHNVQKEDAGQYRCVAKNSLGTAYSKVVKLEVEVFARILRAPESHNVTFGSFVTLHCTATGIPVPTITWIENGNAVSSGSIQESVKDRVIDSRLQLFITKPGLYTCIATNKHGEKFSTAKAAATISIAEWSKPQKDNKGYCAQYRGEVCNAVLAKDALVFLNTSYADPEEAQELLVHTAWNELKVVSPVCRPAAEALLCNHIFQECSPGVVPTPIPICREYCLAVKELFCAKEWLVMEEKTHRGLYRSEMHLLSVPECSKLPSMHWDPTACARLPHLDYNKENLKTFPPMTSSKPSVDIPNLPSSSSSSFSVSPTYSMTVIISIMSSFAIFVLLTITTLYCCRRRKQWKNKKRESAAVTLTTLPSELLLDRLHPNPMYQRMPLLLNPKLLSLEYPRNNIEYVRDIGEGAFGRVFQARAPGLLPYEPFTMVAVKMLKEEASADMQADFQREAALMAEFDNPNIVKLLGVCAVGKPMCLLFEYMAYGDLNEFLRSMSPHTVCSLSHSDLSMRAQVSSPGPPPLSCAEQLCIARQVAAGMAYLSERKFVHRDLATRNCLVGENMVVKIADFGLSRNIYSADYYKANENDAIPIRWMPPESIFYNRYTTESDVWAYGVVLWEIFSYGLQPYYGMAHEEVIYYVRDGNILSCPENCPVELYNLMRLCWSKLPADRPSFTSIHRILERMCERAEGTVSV
Description: as §1, §2, §4

RAF1 YDYD = target: T11, RAF1 YDYD (Homo sapiens, UniProt P04049, Y340D/Y341D); experiment: PanQinase kinase panel: RAF1 YDYD; type: biochemical; conditions: read-out: INHIBITORY EFFECT @ 1 uM: RAF1 YDYD
T11 construct: purchased Reaction Biology Europe GmbH
T11 sequence (P04049 307-648 Y340D/Y341D limits assumed): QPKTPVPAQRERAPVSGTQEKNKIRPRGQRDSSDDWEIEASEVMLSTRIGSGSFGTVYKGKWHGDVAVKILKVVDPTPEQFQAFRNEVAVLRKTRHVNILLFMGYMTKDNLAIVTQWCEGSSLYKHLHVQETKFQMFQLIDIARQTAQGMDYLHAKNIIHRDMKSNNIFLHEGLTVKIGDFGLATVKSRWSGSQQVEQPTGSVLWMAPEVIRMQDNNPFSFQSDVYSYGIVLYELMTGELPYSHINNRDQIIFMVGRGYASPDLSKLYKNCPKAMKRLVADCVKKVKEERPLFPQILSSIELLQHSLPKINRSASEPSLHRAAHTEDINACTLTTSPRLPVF
Description: as §1, §2, §4

SIK2 = target: T12, SIK2 (Homo sapiens, UniProt Q9H0K1); experiment: PanQinase kinase panel: SIK2; type: biochemical
T12 construct: purchased Reaction Biology Europe GmbH
Description: as §1, §2, §4

CXCR4 = CXCR4 (Homo sapiens, UniProt P61073); experiment: Intracellular CXCL-12-induced calcium mobilization assay (FLIPR), U87.CXCR4 cells; type: cell-based; design: expressed in transfected cells; host or cells: U87 (U87.CXCR4); conditions: CXCL-12 25-50 ng/ml, read-out: IC50 CXCL-12 Ca2+ flux U87.CXCR4+
Sequence of CXCR4 (P61073 whole entry): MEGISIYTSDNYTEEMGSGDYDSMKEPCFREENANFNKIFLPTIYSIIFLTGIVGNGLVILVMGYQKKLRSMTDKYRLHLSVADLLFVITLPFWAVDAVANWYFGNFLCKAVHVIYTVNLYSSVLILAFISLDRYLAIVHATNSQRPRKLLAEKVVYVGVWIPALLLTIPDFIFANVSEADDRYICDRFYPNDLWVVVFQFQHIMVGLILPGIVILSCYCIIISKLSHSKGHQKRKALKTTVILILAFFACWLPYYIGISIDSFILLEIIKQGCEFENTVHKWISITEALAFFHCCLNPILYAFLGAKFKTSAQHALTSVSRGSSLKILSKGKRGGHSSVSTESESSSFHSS
Outline: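 U87 cells transfected with CXCR4 were loaded with 4 μM Fluo-2 AM for 45 min at 37° C in HBSS with 20 mM HEPES and 0.2% BSA, pH 7.4. Calcium mobilization induced by CXCL-12 (25-50 ng/ml) was followed over time by FLIPR fluorescence at 37° C.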

[1] = read-out: INHIBITORY EFFECT @ 1 uM: CLK2
[2] = read-out: INHIBITORY EFFECT @ 1 uM: LIMK1
[3] = read-out: INHIBITORY EFFECT @ 1 uM: ACK1
[4] = read-out: INHIBITORY EFFECT @ 1 uM: MUSK
[5] = read-out: INHIBITORY EFFECT @ 1 uM: SIK2

T1 sequence (P51451 whole entry): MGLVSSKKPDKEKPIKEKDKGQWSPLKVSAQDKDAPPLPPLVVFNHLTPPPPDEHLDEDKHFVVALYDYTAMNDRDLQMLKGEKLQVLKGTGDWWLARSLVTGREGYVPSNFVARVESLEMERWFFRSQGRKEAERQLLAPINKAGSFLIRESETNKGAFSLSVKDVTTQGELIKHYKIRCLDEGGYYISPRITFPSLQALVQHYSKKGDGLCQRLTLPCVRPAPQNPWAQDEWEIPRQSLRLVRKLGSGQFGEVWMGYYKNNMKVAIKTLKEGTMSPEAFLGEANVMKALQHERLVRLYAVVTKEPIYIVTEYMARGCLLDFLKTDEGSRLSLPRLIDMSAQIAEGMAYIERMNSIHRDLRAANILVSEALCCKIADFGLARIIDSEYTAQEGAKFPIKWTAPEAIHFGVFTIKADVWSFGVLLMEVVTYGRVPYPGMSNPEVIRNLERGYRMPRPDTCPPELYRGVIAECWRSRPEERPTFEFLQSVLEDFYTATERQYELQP

IC50 (CXCR4) [µM] | SMILES | inhibition at 1 µM (BLK) [%] | inhibition at 1 µM (RIPK2) [%] | inhibition at 1 µM (FGFR3) [%] | inhibition at 1 µM (FGR) [%] | inhibition at 1 µM (PDGFRbeta) [%] | inhibition at 1 µM (CLK2; [1]) [%] | inhibition at 1 µM (LIMK1; [2]) [%] | inhibition at 1 µM (INSR) [%] | inhibition at 1 µM (ACK1; [3]) [%] | inhibition at 1 µM (MUSK; [4]) [%] | inhibition at 1 µM (RAF1 YDYD) [%] | inhibition at 1 µM (SIK2; [5]) [%] | inhibition at 1 µM (CLK2; at 1 μM, read-out: inhibition of CLK2) [%] | inhibition at 1 µM (LIMK1; at 1 μM, read-out: inhibition of LIMK1) [%] | inhibition at 1 µM (ACK1; 1 μM, read-out: inhibitor effect on ACK1) [%] | inhibition at 1 µM (MUSK; at 1 μM, read-out: inhibition of MUSK) [%] | inhibition at 1 µM (SIK2; at 1 μM, read-out: inhibition of SIK2) [%]
 | COc1ccc(F)cc1C(=O)NCc1ccc(-c2nn([C@@H](C)C(F)(F)F)c(N)c2C(N)=O)cc1 [LOXO-305, pirtobrutinib] | < 50 | < 50 | < 50 | < 50 | < 50 | < 50 | < 50 | < 50 | < 50 | < 50 | < 50 | < 50 |  |  |  |  | 
0.1 to 1 | Cc1cc(-c2ccnc(Nc3cnn(CCN4[C@@H](c5ncccc5C)CCC[C@H]4c4ncccc4C)c3)n2)ccc1CNC(=O)N1CC(OC(C)C)C1 [Compound I-11] |  |  |  |  |  |  |  |  |  |  |  |  |  |  |  |  | 
0.1 to 1 | Cc1cccnc1[C@H]1CCC[C@@H](c2ncccc2C)N1CCCCNC(=O)[C@@H]1CC[C@@H](Nc2ncnc3[nH]cc(C(=O)c4ccc(Oc5ccccc5)cc4Cl)c23)CO1 [Compound I-16] |  |  |  |  |  |  |  |  |  |  |  |  |  |  |  |  | 
 | C=CC(=O)N1CCC([C@@H]2CCNc3c(C(N)=O)c(-c4ccc(Oc5ccccc5)cc4)nn32)CC1 [Zanubrutinib, (7S)-2-(4-phenoxyphenyl)-7-(1-prop-2-enoylpiperidin-4-yl)-4,5,6,7-tetrahydropyrazolo[1,5-a]pyrimidine-3-carboxamide] |  | 50 to 69 | < 50 | < 50 | < 50 | < 50 | < 50 | < 50 | < 50 | < 50 | < 50 | < 50 |  |  |  |  | 
> 2.5 | Cc1cccnc1[C@H]1CCC[C@@H](c2ncccc2C)N1CCCCNC(=O)OC[C@@H]1CC[C@@H](Nc2ncnc3[nH]cc(C(=O)c4ccc(Oc5ccccc5)cc4Cl)c23)CO1 [Compound I-18] |  |  |  |  |  |  |  |  |  |  |  |  |  |  |  |  | 
 | O=C(c1ccc(Oc2ccccc2)cc1Cl)c1c[nH]c2ncnc(N[C@@H]3CC[C@@H](CO)OC3)c12 [ARQ-531, (2-chloro-4-phenoxyphenyl) (4-(((3R,6S)-6-(hydroxymethyl)tetrahydro-2H-pyran-3-yl)amino)-7H-pyrrolo[2,3-d]pyrimidin-5-yl) methanone] | 90 to 100 | 90 to 100 | 50 to 69 | 70 to 89 | < 50 |  |  | 70 to 89 | 90 to 100 |  | 70 to 89 |  |  |  |  |  | 

SMILES | IC50 (CXCR4) [µM] | inhibition at 1 µM (BLK) [%] | inhibition at 1 µM (RIPK2) [%] | inhibition at 1 µM (FGFR3) [%] | inhibition at 1 µM (FGR) [%] | inhibition at 1 µM (PDGFRbeta) [%] | inhibition at 1 µM (CLK2; [1]) [%] | inhibition at 1 µM (LIMK1; [2]) [%] | inhibition at 1 µM (INSR) [%] | inhibition at 1 µM (ACK1; [3]) [%] | inhibition at 1 µM (MUSK; [4]) [%] | inhibition at 1 µM (RAF1 YDYD) [%] | inhibition at 1 µM (SIK2; [5]) [%] | inhibition at 1 µM (CLK2; at 1 μM, read-out: inhibition of CLK2) [%] | inhibition at 1 µM (LIMK1; at 1 μM, read-out: inhibition of LIMK1) [%] | inhibition at 1 µM (ACK1; 1 μM, read-out: inhibitor effect on ACK1) [%] | inhibition at 1 µM (MUSK; at 1 μM, read-out: inhibition of MUSK) [%] | inhibition at 1 µM (SIK2; at 1 μM, read-out: inhibition of SIK2) [%]
Cc1cccnc1[C@H]1CCC[C@@H](c2ncccc2C)N1CCN1CCN(C(=O)c2ccc(-c3cc4c(-c5cccc(NC(=O)c6ccccc6)c5C)ncnc4[nH]3)cc2)CC1 [Compound I-10, N-(3-(6-(4-(4-(2-((2R,6S)-2,6-bis(3-methylpyridin-2-yl)piperidin-1-yl)ethyl)piperazine-1-carbonyl)phenyl)-7H-pyrrolo[2,3-d]pyrimidin-4-yl)-2-methylphenyl)benzamide] | 0.001 to 0.1 | < 50 | < 50 | < 50 | < 50 | < 50 | 50 to 69 | 70 to 89 | < 50 | 90 to 100 | 70 to 89 | < 50 | 50 to 69 | 50 to 89 | 50 to 89 | ≥ 90 | 50 to 89 | 50 to 89
